Values quoted from earlier work as cited in patent publication US10857230B2, “Co-therapy comprising a small molecule CSF-1R inhibitor and an agonistic antibody that specifically binds CD40 for the treatment of cancer” (Janssen Biotech, Inc., priority 2017, dated 2020).

What was measured:
[1] = system: B cells and dendritic cells; conditions: cited from earlier work
[2] = patient clinical trials; day of antibody intravenous infusion; cited from earlier work

## CP-870,893: cross-linking independent agonistic CD40 antibody; VH and VL of SEQ ID NOs: 44 and 45, may be IgG2
[1]
  potency in activating B cells relative to dendritic cells: about 20 fold
[2]
  most common side effects: moderate CRS
